Data published in article PMC12655637, “Design, Synthesis, and Mechanistic Study of Novel Ciprofloxacin/Thiazole Chalcone Hybrids as Potential Anticancer Agents” (Pharmaceuticals, 2025).
pIC50: −log10 of the molar value.

Tests used:
HL-60(TB) = assay: NCI-60 screening, one-dose (10 µM) and five-dose, SRB; assay type: cell-based, human; settings: Homo sapiens; for activity at 10 µM: HL-60, 10 μM, HL-60(TB), Leukemia, read-out: Growth percentage
MOLT-4 = assay: as above; assay type: cell-based, human; settings: Homo sapiens; 10 μM; MOLT-4, Leukemia; read-out: Growth percentage
A549/ATCC = assay: as above; assay type: cell-based, human; settings: Homo sapiens, 10 μM, Non-Small-Cell Lung Cancer, read-out: Growth percentage
HOP-62 = assay: as above; assay type: cell-based, human; settings: Homo sapiens, HOP-62, 10 μM; HOP-62, Non-Small-Cell Lung Cancer; read-out: Growth percentage
NCI-H322M = assay: as above; assay type: cell-based, human; settings: 10 μM, Non-Small-Cell Lung Cancer
NCI-H522 = assay: as above; assay type: cell-based, human; settings: Homo sapiens; 10 μM; NCI-H522, Non-Small-Cell Lung Cancer; read-out: Growth percentage
HCT-15 = assay: as above; assay type: cell-based, human; settings: Homo sapiens; 10 μM; HCT-15, Colon Cancer; read-out: Growth percentage
HT29 = assay: as above; assay type: cell-based, human; settings: Homo sapiens, HT-29; 10 μM; HT29, Colon Cancer; read-out: Growth percentage
SF-539 = assay: as above; assay type: cell-based, human; settings: Homo sapiens, SF-539, 10 μM; SF-539, CNS Cancer; read-out: Growth percentage
SNB-19 = assay: as above; assay type: cell-based; settings: Homo sapiens; 10 μM; SNB-19, CNS Cancer; read-out: Growth percentage
SNB-75 = assay: as above; assay type: cell-based, human; settings: Homo sapiens; 10 μM; SNB-75, CNS Cancer; read-out: Growth percentage
U251 = assay: as above; assay type: cell-based, human; settings: Homo sapiens, U-251; 10 μM; U251, CNS Cancer; read-out: Growth percentage
LOX IMVI = assay: as above; assay type: cell-based, human; settings: Homo sapiens, 10 μM, Melanoma, read-out: Growth percentage
MALME-3M = assay: as above; assay type: cell-based, human; settings: 10 μM, Melanoma
M14 = assay: as above; assay type: cell-based, human; settings: Homo sapiens; 10 μM; M14, Melanoma; read-out: Growth percentage
MDA-MB-435 = assay: as above; assay type: cell-based; settings: Homo sapiens, MDA-MB-435, read-out: Growth percentage, 10 μM; MDA-MB-435, Melanoma
SK-MEL-28 = assay: as above; assay type: cell-based, human; settings: Homo sapiens; 10 μM; SK-MEL-28, Melanoma; read-out: Growth percentage
SK-MEL-5 = assay: as above; assay type: cell-based, human; settings: Homo sapiens; 10 μM; SK-MEL-5, Melanoma; read-out: Growth percentage
UACC-62 = assay: as above; assay type: cell-based; settings: Homo sapiens; 10 μM; UACC-62, Melanoma; read-out: Growth percentage
IGROV1 = assay: as above; assay type: cell-based, human; settings: 10 μM; IGROV1, Ovarian Cancer
OVCAR-3 = assay: as above; assay type: cell-based; settings: Homo sapiens; 10 μM; OVCAR-3, Ovarian Cancer; read-out: Growth percentage
OVCAR-8 = assay: as above; assay type: cell-based, human; settings: Homo sapiens; 10 μM; OVCAR-8, Ovarian Cancer; read-out: Growth percentage
NCI/ADR-RES = assay: as above; assay type: cell-based, human; settings: Homo sapiens, 10 μM, Ovarian Cancer, read-out: Growth percentage
SK-OV-3 = assay: as above; assay type: cell-based, human; settings: Homo sapiens; 10 μM; SK-OV-3, Ovarian Cancer; read-out: Growth percentage
A498 = assay: as above; assay type: cell-based; settings: Homo sapiens, A498, 10 μM; A498, Renal Cancer; read-out: Growth percentage
PC-3 = assay: as above; assay type: cell-based, human; settings: Homo sapiens; 10 μM; PC-3, Prostate Cancer; read-out: Growth percentage
BT-549 = assay: as above; assay type: cell-based; settings: Homo sapiens; 10 μM; BT-549, Breast Cancer; read-out: Growth percentage
[1] = tested on: 60 human cancer cell lines; assay: NCI-60 screening, full panel (mean growth, MID a, ranges over all lines); settings: Homo sapiens, read-out: Mean growth percentage
Experimental: The screening was performed in accordance with the protocols set forth by the Drug Evaluation Department of the National Cancer Institute (NCI), Bethesda, USA, for in vitro anticancer efficacy at a single concentration of 10 µM against a panel of 60 cancer cell lines derived from nine distinct organs (https://dctd.cancer.gov/data-tools-biospecimens/data (accessed on 15 March 2023 and 6 January 2024)) [37].
The log10 GI50, log10 TGI, and log10 LC50 values were subsequently calculated as the averages of the log10 values of the respective individual GI50, TGI, and LC50 measurements. Negative numbers signified the most sensitive cell lines.
One way to measure a compound’s selectivity is to divide its subpanel MID^b (in μM) by the MID^a (in μM), which is the average sensitivity of all cell lines to the test agent.
At the National Cancer Institute (NCI) in Bethesda, USA, researchers examined the anticancer potential of the target compounds under investigation using nine panels of sixty different cell lines obtained from nine different cancers that were housed in the NCI library. Following the protocols laid out by the National Cancer Institute (https://dctd.cancer.gov/data-tools-biospecimens/data (accessed on 15 March 2023 and 6 January 2024)), the screening procedures were carried out [37]. The anticancer screening was carried out at a single dose of 10^−5 M; the results obtained were expressed as growth inhibition (%).
The anti-cancer potential of the tested compounds was evaluated at the National cancer institute (NCI), Bethesda, USA, against 9 panels of 60 various cell lines derived from nine human tumours available usually at NCI library. The procedures for the screening were described in details in NCI website (dttp://www.dtp.nci.nih.gov.) and were done according to NCI protocols. The anticancer screening was carried out at single dose of 10^-5 M. The results obtained as growth inhibition (%).
Cell lines were grown in Roswell Park Memorial Institute medium (RPMI) with 5% fetal bovine serum and 2% μM L-glutamine. Cancer cells are inoculated into 96 well microtiter plates in 100 μL at plating densities ranging from 5000 to 40,000 cells/well depending on the doubling time of individual cell lines. Then microtiter plates are incubated at 37 °C, 5% CO2, 95% air and 100% relative humidity for 24 h prior to the addition of the tested compounds. After 24 h, two plates of each cell line are fixed in situ with trichloroacetic acid (TCA). The tested compounds were dissolved in dimethyl sulfoxide (DMSO) and stored in the freezer prior to use. An aliquot of frozen drug concentrate is diluted to the desired concentration with complete medium containing 50 μg/mL gentamicin.

OVCAR-5 = assay: NCI-60 screening, one-dose (10 µM) and five-dose, SRB; assay type: cell-based, human; settings: 10 μM; OVCAR-5, Ovarian Cancer
T-47D = assay: as above; assay type: cell-based, human; settings: 10 μM, Breast Cancer

Compound `CC(=O)c1sc(SCC(=O)N2CCN(c3cc4c(cc3F)c(=O)c(C(=O)O)cn4C3CC3)CC2)nc1C` [Compound 4a, 7-(4-(2-((5-Acetyl-4-methylthiazol-2-yl)thio)acetyl)piperazin-1-yl)-1-cyclopropyl-6-fluoro-4-oxo-1,4-dihydroquinoline-3-carboxylic Acid] has an activity at 10 µM (HL-60(TB)) of 102%, an activity at 10 µM (MOLT-4) of 102% and an activity at 10 µM (A549/ATCC) of 104%. It also gave an activity at 10 µM (HOP-62) of 95.6%, a Growth percentage (NCI-H322M) of 105.5% and an activity at 10 µM (NCI-H522) of 98.9%. For the same compound, the activity at 10 µM (HCT-15) was 102%, the activity at 10 µM (HT29) was 104% and the activity at 10 µM (SF-539) was 86.4%. The activity at 10 µM (SNB-19) was 102%, the activity at 10 µM (SNB-75) was 79.2% and the activity at 10 µM (U251) was 114%. It also gave an activity at 10 µM (LOX IMVI) of 106%, a Growth percentage (MALME-3M) of 104.9% and an activity at 10 µM (M14) of 104%. It also gave an activity at 10 µM (MDA-MB-435) of 99.4%, an activity at 10 µM (SK-MEL-28) of 96.7% and an activity at 10 µM (SK-MEL-5) of 89%. It also gave an activity at 10 µM (UACC-62) of 104%, a Growth percentage (IGROV1) of 115.9% and an activity at 10 µM (OVCAR-3) of 98.8%. The activity at 10 µM (OVCAR-8) was 105%, the activity at 10 µM (NCI/ADR-RES) was 108% and the activity at 10 µM (SK-OV-3) was 101%. It also gave an activity at 10 µM (A498) of 104%, an activity at 10 µM (PC-3) of 98.8% and an activity at 10 µM (BT-549) of 98.3%. The activity at 10 µM [1] was 102%.
`COc1ccc(/C=C/C(=O)c2sc(SCC(=O)N3CCN(c4cc5c(cc4F)c(=O)c(C(=O)O)cn5C4CC4)CC3)nc2C)cc1` [Compound 4j, (E)-1-Cyclopropyl-6-fluoro-7-(4-(2-((5-(3-(4-methoxyphenyl)acryloyl)-4-methylthiazol-2-yl)thio)acetyl)piperazin-1-yl)-4-oxo-1,4-dihydroquinoline-3-carboxylic Acid] showed an activity at 10 µM (HL-60(TB)) of 101%, an activity at 10 µM (MOLT-4) of 99.7% and an activity at 10 µM (A549/ATCC) of 105%. It also gave an activity at 10 µM (HOP-62) of 98.3%, an activity at 10 µM (NCI-H522) of 99% and an activity at 10 µM (HCT-15) of 104%. For the same compound, the activity at 10 µM (HT29) was 108%, the activity at 10 µM (SF-539) was 97.5% and the activity at 10 µM (SNB-19) was 103%. The activity at 10 µM (SNB-75) was 86.2%, the activity at 10 µM (U251) was 107% and the activity at 10 µM (LOX IMVI) was 97.9%. For the same compound, the activity at 10 µM (M14) was 109%, the activity at 10 µM (MDA-MB-435) was 108% and the activity at 10 µM (SK-MEL-28) was 114%. It also gave an activity at 10 µM (SK-MEL-5) of 99.7%, an activity at 10 µM (UACC-62) of 111% and an activity at 10 µM (OVCAR-3) of 174%. It also gave a Growth percentage (OVCAR-5) of 110.0%, an activity at 10 µM (OVCAR-8) of 94.6% and an activity at 10 µM (NCI/ADR-RES) of 109%. It also gave an activity at 10 µM (SK-OV-3) of 115%, an activity at 10 µM (A498) of 117% and an activity at 10 µM (PC-3) of 107%. The activity at 10 µM (BT-549) was 102%, the Growth percentage (T-47D) was 94.7% and the activity at 10 µM [1] was 105%.
In the case of `COc1cccc(/C=C/C(=O)c2sc(SCC(=O)N3CCN(c4cc5c(cc4F)c(=O)c(C(=O)O)cn5C4CC4)CC3)nc2C)c1OC` [Compound 4k, (E)-1-Cyclopropyl-7-(4-(2-((5-(3-(2,3-dimethoxyphenyl)acryloyl)-4-methylthiazol-2-yl)thio)acetyl)piperazin-1-yl)-6-fluoro-4-oxo-1,4-dihydroquinoline-3-carboxylic Acid], the pIC50 (HL-60(TB); HL-60, leukemia HL-60) was 5.53, the activity at 10 µM (MOLT-4) was 80.4% and the activity at 10 µM (A549/ATCC) was 106%. The activity at 10 µM (HOP-62) was -20.2%, the Growth percentage (NCI-H322M) was 114.8% and the activity at 10 µM (NCI-H522) was 104%. It also gave an activity at 10 µM (HCT-15) of 64.5%, an activity at 10 µM (HT29) of 82.6% and an activity at 10 µM (SNB-19) of 87.2%. It also gave an activity at 10 µM (SNB-75) of 100%, an activity at 10 µM (U251) of 103% and an activity at 10 µM (LOX IMVI) of 104%. For the same compound, the Growth percentage (MALME-3M) was 115.2%, the activity at 10 µM (M14) was 75.1% and the activity at 10 µM (MDA-MB-435) was 53.2%. The activity at 10 µM (SK-MEL-28) was 100%, the activity at 10 µM (SK-MEL-5) was 83% and the activity at 10 µM (UACC-62) was 102%. It also gave a Growth percentage (IGROV1) of 101.3%, an activity at 10 µM (OVCAR-3) of 84.5% and an activity at 10 µM (OVCAR-8) of 87.6%. It also gave an activity at 10 µM (NCI/ADR-RES) of 112%, an activity at 10 µM (SK-OV-3) of 76.7% and an activity at 10 µM (A498) of 90.9%. It also gave an activity at 10 µM (PC-3) of 93.5%, an activity at 10 µM (BT-549) of 63.3% and an activity at 10 µM [1] of 77.9%.
